This assay has as its target T1, human TGR5 (Homo sapiens, UniProt Q8TDU6).
T1 construct: expressed in transfected cells
T1 sequence (Q8TDU6 1-330): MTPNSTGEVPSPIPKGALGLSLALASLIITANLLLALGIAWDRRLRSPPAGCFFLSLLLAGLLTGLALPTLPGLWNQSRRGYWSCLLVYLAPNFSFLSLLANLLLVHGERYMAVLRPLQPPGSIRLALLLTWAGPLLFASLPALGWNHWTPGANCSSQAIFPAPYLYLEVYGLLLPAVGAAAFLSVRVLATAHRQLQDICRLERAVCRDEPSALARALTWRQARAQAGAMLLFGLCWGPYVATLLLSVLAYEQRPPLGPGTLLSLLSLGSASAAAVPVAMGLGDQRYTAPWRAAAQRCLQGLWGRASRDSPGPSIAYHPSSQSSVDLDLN
In words: cAMP production assay in HEK293 cells stably expressing TGR5 (LANCE TR-FRET). In kind it is cell-based. Particulars: 30 minutes stimulation, 1 mM IBMX, read-out: cAMP Production in 293-TGR5 Cells. As for the experimental part: HEK293 cells stably expressing TGR5 (HEK293-TGR5) were established by stably transfecting HEK-293 cells with an expression vector (pcDNA 3.1, Invetrogen) inserted with human TGR5 cDNA using Fugene6 (Roche, Indianapolis, Ind.) according to conventional methods. Cells were grown in DMEM (invitrogen, Carlsbad, Calif.) supplemented with 10% FBS, 1% penicillin/streptomycin under geneticin selection. The presence of TGR5 transcripts in these cells was confirmed using branched DNA (bDNA, Genospectra, Inc., Fremont Calif.) following the manufacturer's protocol and using specific probes for human TGR5. cAMP production assay was performed in high throughput 1536 well format using LANCE cAMP detection kit (Perkin Elmer Inc., Boston, Mass.) according to the manufacturer's protocol. Briefly, HEK293-TGR5 cells were harvested using non-enzymatic cell dissociation buffer (Invitrogen, Carlsbad, Calif.) and suspended in DMEM supplemented with 0.1% FBS at a density of 800,000 cells/ml. Alexa antibody was added to the cell suspension, and 4 ul of the mixture was dispensed in white opaque tissue culture treated Greiner 1536 well plates (USA Scientific, Inc., Ocala, Fla.). After an overnight incubation at 37C in an atmosphere of 10% CO2 and 95% humidity, 1 ul of 5 mM IBMX (Sigma, St. Louis, Mo.) solution in DMEM was dispensed for a final concentration of 1 mM. Cells were then stimulated with test compounds for 30 minutes, after which time 5 ul of detection reagent was added and incubated for 1-7 hrs at room temperature. TR-FRET signal was detected using the Viewlux (Perkin Elmer Inc., Boston Mass.). EC50 values were determined using Graph Pad Prizm analysis (GraphPad Software, Inc). The EC50 values for a wide range of bile acids generated from this assay were in agreement with the values published in the scientific literature. […] The symbol (+) denotes an EC50 value of ≦10 μM while the symbol (−) denotes an EC50 value of >10 μM (see Table 1).

Molecules are shown by their SMILES.

`CC(C)n1ncc2cc(CNCc3ccc(C(F)(F)F)cc3)c(-c3ccsc3)nc21` [Example 1, 1-(1-isopropyl-6-(thiophen-3-yl)-1H-pyrazolo[3,4-b]pyridin-5-yl)-N-(4-(trifluoromethyl)benzyl)methanamine]: the EC50 is ≤ 10 µM. Turning to `CC(C)n1ncc2cc(CNCCc3ccc(Br)cc3)c(-c3ccsc3)nc21` [Example 2, 2-(4-Bromophenyl)-N-((1-isopropyl-6-(thiophen-3-yl)-1H-pyrazolo[3,4-b]pyridin-5-yl)methyl)ethanamine], the EC50 is ≤ 10 µM.

Take `Cc1nn(C)c2nc(-c3ccsc3)c(CNCCc3ccc(Br)cc3)cc12` [Example 3, 2-(4-bromophenyl)-N-((1,3-dimethyl-6-(thiophen-3-yl)-1H-pyrazolo[3,4-b]pyridin-5-yl)methyl)ethanamine]: the EC50 was ≤ 10 µM. The value for `Cc1nn(C)c2nc(-c3ccsc3)c(CNCc3ccc(C(F)(F)F)cc3)cc12` [Example 4, 1-(1,3-dimethyl-6-(thiophen-3-yl)-1H-pyrazolo[3,4-b]pyridin-5-yl)-N-(4-(trifluoromethyl)benzyl)methanamine] was > 10 µM; that for `Brc1ccc(CCNCc2cc3sccc3nc2-c2ccsc2)cc1` [Example 5, 2-(4-bromophenyl)-N-((5-(thiophen-3-yl)thieno[3,2-b]pyridin-6-yl)methyl)ethanamine] was ≤ 10 µM; that for `Brc1ccc(CCNCc2cc3ccsc3nc2-c2ccsc2)cc1` [Example 6, 2-(4-bromophenyl)-N-((6-(thiophen-3-yl)thieno[2,3-b]pyridin-5-yl)methyl)ethanamine] was ≤ 10 µM. Turning to `FC(F)(F)c1ccc(CNCc2cc3ccsc3nc2-c2ccsc2)cc1` [Example 7, 1-(6-(thiophen-3-yl)thieno[2,3-b]pyridin-5-yl)-N-(4-(trifluoromethyl)benzyl)methanamine], the EC50 was ≤ 10 µM. In the case of `Brc1ccc(CCNCc2cc3ccncc3nc2-c2ccsc2)cc1` [Example 8, 2-(4-bromophenyl)-N-((2-(thiophen-3-yl)-1,7-naphthyridin-3-yl)methyl)ethanamine] it was ≤ 10 µM. The value for `COc1cc2nc(-c3ccsc3)c(CNCCc3ccc(Br)cc3)cc2cn1` [Example 9, 2-(4-bromophenyl)-N-((7-methoxy-2-(thiophen-3-yl)-1,6-naphthyridin-3-yl)methyl)ethanamine] was ≤ 10 µM. The value for `O=c1cc2nc(-c3ccsc3)c(CNCCc3ccc(Br)cc3)cc2c[nH]1` [Example 10, 3-((4-bromophenethylamino)methyl)-2-(thiophen-3-yl)-1,6-naphthyridin-7(6H)-one] was > 10 µM; that for `COc1ccc2cc(CNCCc3ccc(Br)cc3)c(-c3ccsc3)nc2n1` [Example 11, 2-(4-bromophenyl)-N-((7-methoxy-2-(thiophen-3-yl)-1,8-naphthyridin-3-yl)methyl)ethanamine] was ≤ 10 µM; that for `O=c1ccc2cc(CNCCc3ccc(Br)cc3)c(-c3ccsc3)nc2[nH]1` [Example 12, 6-((4-bromophenethylamino)methyl)-7-(thiophen-3-yl)-1,8-naphthyridin-2(1H)-one] was ≤ 10 µM.

The values are drawn from patent US20090054304A1, “HETEROCYCLIC MODULATORS OF TGR5 FOR TREATMENT OF DISEASE” (KALYPSYS, INC., priority 2007, published 2009).
